These results are taken from patent publication US8642770B2, “Indole derivative” (Takeda Pharmaceutical Company Limited, priority 2010, dated 2014).

Counter-ions that a name gives are not always drawn.

`Cc1c(NC(=O)c2ccc(OC[C@@H]3CCCO3)cc2)ccc2c1cc(CN[C@H]1CC[C@](C)(O)CC1)n2C.Cl` returned a melting point of 278 °C.

As to `Cn1c(CNCC(C)(C)C)cc2cc(NC(=O)c3ccc(OC[C@@H]4CCCO4)cc3)ccc21` (as salt: acetate) [Example 15, N-(2-{[(2,2-dimethylpropyl)amino]methyl}-1-methyl-1H-indol-5-yl)-4-[(2S)-tetrahydrofuran-2-ylmethoxy]benzamide acetate], the melting point is 150 to 151 °C. The figure for `CC1(CNCc2cc3cc(NC(=O)c4ccc(OCC5CC5)cc4)ccc3[nH]2)COC1` [Example 1, 4-(cyclopropylmethoxy)-N-[2-({[(3-methyloxetan-3-yl)methyl]amino}methyl)-1H-indol-5-yl]benzamide] is 166 to 167 °C; for `O=C(Nc1ccc2[nH]c(CNCC3CCOCC3)cc2c1)c1ccc(OCC2CC2)cc1` [Example 3, 4-(cyclopropylmethoxy)-N-(2-{[(tetrahydro-2H-pyran-4-ylmethyl)amino]methyl}-1H-indol-5-yl)benzamide] it is 160 °C; for `Cn1c(CNCC2(C)COC2)cc2cc(NC(=O)c3ccc(OCC4CC4)cc3)ccc21` [Example 4, 4-(cyclopropylmethoxy)-N-[1-methyl-2-({[(3-methyloxetan-3-yl)methyl]amino}methyl)-1H-indol-5-yl]benzamide] it is 154 to 155 °C. The figure for `Cn1c(CNCC(C)(C)O)cc2cc(NC(=O)c3ccc(OCC4CC4)cc3)ccc21` [Example 5, 4-(cyclopropylmethoxy)-N-(2-{[(2-hydroxy-2-methylpropyl)amino]methyl}-1-methyl-1H-indol-5-yl)benzamide] is 188 to 189 °C.

On to `Cn1c(CNCC(C)(C)S(C)(=O)=O)cc2cc(NC(=O)c3ccc(OCC4CC4)cc3)ccc21` [Example 7, 4-(cyclopropylmethoxy)-N-[1-methyl-2-({[2-methyl-2-(methylsulfonyl)propyl]amino}methyl)-1H-indol-5-yl]benzamide], for which the melting point lay within 168 to 169 °C. With `Cn1c(CN[C@H]2CC[C@H](O)CC2)cc2cc(NC(=O)c3ccc(OCC4CC4)cc3)ccc21` [Example 8, 4-(cyclopropylmethoxy)-N-(2-{[(trans-4-hydroxycyclohexyl)amino]methyl}-1-methyl-1H-indol-5-yl)benzamide] the figure was 196 to 197 °C; with `Cn1c(CNC[C@H]2CCCO2)cc2cc(NC(=O)c3ccc(OCC4CC4)cc3)ccc21` [Example 10, 4-(cyclopropylmethoxy)-N-[1-methyl-2-({[(2R)-tetrahydrofuran-2-ylmethyl]amino}methyl)-1H-indol-5-yl]benzamide], 138 to 139 °C. In turn, `Cn1c(CNC[C@@H]2CCCO2)cc2cc(NC(=O)c3ccc(OCC4CC4)cc3)ccc21` [Example 11, 4-(cyclopropylmethoxy)-N-[1-methyl-2-({[(2S)-tetrahydrofuran-2-ylmethyl]amino}methyl)-1H-indol-5-yl]benzamide] came in with a melting point of 139 °C. The figure for `CC(C)CNCc1cc2cc(NC(=O)c3ccc(OC[C@@H]4CCCO4)cc3)ccc2n1C` [Example 16, N-(1-methyl-2-{[(2-methylpropyl)amino]methyl}-1H-indol-5-yl)-4-[(2S)-tetrahydrofuran-2-ylmethoxy]benzamide] is 132 to 133 °C; for `Cn1c(CNC2CCC(C)(O)CC2)cc2cc(NC(=O)c3ccc(OC[C@@H]4CCCO4)cc3)ccc21` (stereo partly drawn) [Example 18, N-(2-{[(trans-4-hydroxy-4-methylcyclohexyl)amino]methyl}-1-methyl-1H-indol-5-yl)-4-[(2S)-tetrahydrofuran-2-ylmethoxy]benzamide] it is 154 °C; for `Cn1c(CNCC(C)(C)O)cc2cc(NC(=O)c3ccc(OC[C@@H]4CCCO4)cc3)ccc21` [Example 19, N-(2-{[(2-hydroxy-2-methylpropyl)amino]methyl}-1-methyl-1H-indol-5-yl)-4-[(2S)-tetrahydrofuran-2-ylmethoxy]benzamide] it is 188 to 190 °C. In turn, `CC(C)CNCc1cc2cc(NC(=O)c3ccc(OCC4CCOC4)cc3)ccc2n1C` (stereo not shown) [Example 21, N-(1-methyl-2-{[(2-methylpropyl)amino]methyl}-1H-indol-5-yl)-4-(tetrahydrofuran-3-ylmethoxy)benzamide] registered a melting point of 125 to 126 °C. With `Cn1c(CNCC(C)(C)C)cc2cc(NC(=O)c3ccc(OCC4CCOC4)cc3)ccc21` (stereo not shown) [Example 22, N-(2-{[(2,2-dimethylpropyl)amino]methyl}-1-methyl-1H-indol-5-yl)-4-(tetrahydrofuran-3-ylmethoxy)benzamide] the figure was 162 to 163 °C; with `Cn1c(CNCC2CCOCC2)cc2cc(NC(=O)c3ccc(OCC4CCOC4)cc3)ccc21` (stereo not shown) [Example 23, N-(1-methyl-2-{[(tetrahydro-2H-pyran-4-ylmethyl)amino]methyl}-1H-indol-5-yl)-4-(tetrahydrofuran-3-ylmethoxy)benzamide], 153 to 154 °C; with `Cn1c(CN[C@H]2CC[C@](C)(O)CC2)cc2cc(NC(=O)c3ccc(OCC4CCOC4)cc3)ccc21` (stereo partly drawn) [Example 24, N-(2-{[(trans-4-hydroxy-4-methylcyclohexyl)amino]methyl}-1-methyl-1H-indol-5-yl)-4-(tetrahydrofuran-3-ylmethoxy)benzamide], 181 to 182 °C. With `Cn1c(CNCC(C)(C)O)cc2cc(NC(=O)c3ccc(OCC4CCOC4)cc3)ccc21` (stereo not shown) [Example 25, N-(2-{[(2-hydroxy-2-methylpropyl)amino]methyl}-1-methyl-1H-indol-5-yl)-4-(tetrahydrofuran-3-ylmethoxy)benzamide] the figure was 169 °C. The figure for `Cn1c(CNCC2CCOC2)cc2cc(NC(=O)c3ccc(OCC4CCOC4)cc3)ccc21` (stereo not shown) [Example 26, N-(1-methyl-2-{[(tetrahydrofuran-3-ylmethyl)amino]methyl}-1H-indol-5-yl)-4-(tetrahydrofuran-3-ylmethoxy)benzamide] is 131 to 133 °C; for `Cn1c(CNCC(C)(C)O)cc2cc(NC(=O)c3ccc(OC[C@@H]4CCCO4)cc3F)ccc21` [Example 27, 2-fluoro-N-(2-{[(2-hydroxy-2-methylpropyl)amino]methyl}-1-methyl-1H-indol-5-yl)-4-[(2S)-tetrahydrofuran-2-ylmethoxy]benzamide] it is 159 to 160 °C. `Cn1c(CN[C@H]2CC[C@](C)(O)CC2)cc2cc(NC(=O)c3ccc(OC[C@@H]4CCCO4)cc3F)ccc21` [Example 28, 2-fluoro-N-(2-{[(trans-4-hydroxy-4-methylcyclohexyl)amino]methyl}-1-methyl-1H-indol-5-yl)-4-[(2S)-tetrahydrofuran-2-ylmethoxy]benzamide] registered a melting point of 138 to 139 °C. The molecule `CC(C)CNCc1cc2cc(NC(=O)c3ccc(C#CC4(O)CCC4)cc3)ccc2n1C` [Example 29, 4-[(1-hydroxycyclobutyl)ethynyl]-N-(2-{[(2-methylpropyl)amino]methyl}-1-methyl-1H-indol-5-yl)benzamide] displayed a melting point of 168 to 169 °C. The figure for `Cn1c(CNCC(C)(C)C)cc2cc(NC(=O)c3ccc(C#CC4(O)CCC4)cc3)ccc21` [Example 30, N-(2-{[(2,2-dimethylpropyl)amino]methyl}-1-methyl-1H-indol-5-yl)-4-[(1-hydroxycyclobutyl)ethynyl]benzamide] is 160 to 161 °C; for `Cn1c(CNCC(C)(C)C)cc2cc(NC(=O)c3ccc(C#CC4(O)CC4)cc3)ccc21` [Example 31, N-(2-{[(2,2-dimethylpropyl)amino]methyl}-1-methyl-1H-indol-5-yl)-4-[(1-hydroxycyclopropyl)ethynyl]benzamide] it is 173 °C. The figure for `Cc1c(CNCC2CCOCC2)[nH]c2ccc(NC(=O)c3ccc(OC[C@@H]4CCCO4)cc3)cc12` [Example 33, N-(3-methyl-2-{[(tetrahydro-2H-pyran-4-ylmethyl)amino]methyl}-1H-indol-5-yl)-4-[(2S)-tetrahydrofuran-2-ylmethoxy]benzamide] is 146 to 147 °C; for `Cc1c(CNCC(C)C)n(C)c2ccc(NC(=O)c3ccc(OC[C@@H]4CCCO4)cc3)cc12` [Example 34, N-(2-{[(2-methylpropyl)amino]methyl}-1,3-dimethyl-1H-indol-5-yl)-4-[(2S)-tetrahydrofuran-2-ylmethoxy]benzamide] it is 145 to 146 °C; for `Cc1c(CNCC2CCOCC2)n(C)c2ccc(NC(=O)c3ccc(OC[C@@H]4CCCO4)cc3)cc12` [Example 35, N-(1,3-dimethyl-2-{[(tetrahydro-2H-pyran-4-ylmethyl)amino]methyl}-1H-indol-5-yl)-4-[(2S)-tetrahydrofuran-2-ylmethoxy]benzamide] it is 185 to 186 °C. For the molecule `Cc1c(CNCC(C)(C)O)n(C)c2ccc(NC(=O)c3ccc(OC[C@@H]4CCCO4)cc3)cc12` [Example 36, N-(2-{[(2-hydroxy-2-methylpropyl)amino]methyl}-1,3-dimethyl-1H-indol-5-yl)-4-[(2S)-tetrahydrofuran-2-ylmethoxy]benzamide], the melting point lay in the range of 145 to 146 °C.

As to `Cc1c(CNCC(C)(C)C)n(C)c2ccc(NC(=O)c3ccc(OC[C@@H]4CCCO4)cc3)cc12` [Example 37, N-(2-{[(2,2-dimethylpropyl)amino]methyl}-1,3-dimethyl-1H-indol-5-yl)-4-[(2S)-tetrahydrofuran-2-ylmethoxy]benzamide], the melting point was 165 to 166 °C.

Regarding `Cc1c(CN[C@H]2CC[C@](C)(O)CC2)n(C)c2ccc(NC(=O)c3ccc(OC[C@@H]4CCCO4)cc3)cc12` [Example 38, N-(2-{[(trans-4-hydroxy-4-methylcyclohexyl)amino]methyl}-1,3-dimethyl-1H-indol-5-yl)-4-[(2S)-tetrahydrofuran-2-ylmethoxy]benzamide], the melting point lay within 172 to 173 °C. With `Cc1c(CNCC(C)C)n(C)c2ccc(NC(=O)c3ccc(OCC4CC4)cc3)cc12` [Example 39, 4-(cyclopropylmethoxy)-N-(2-{[(2-methylpropyl)amino]methyl}-1,3-dimethyl-1H-indol-5-yl)benzamide] the figure was 142 to 143 °C.

One may read the melting point as the temperature, or range, at which the solid turns liquid.
